Where a name gives a salt, the structure may show the parent alone.

Test [1] has as its system human breast cancer MCF-7 cells. The test can be described thus: Growth inhibition of tumor cells cultured in vitro, CellTiter-Glo, MCF-7. Format: cell-based. To be noted: for IC50: MCF-7, 72 h, CellTiter-Glo; for inhibitory effect on human breast cancer MCF-7 cells (in words): summary of the table. The text has this: (§1) Test drugs: Compounds of the present disclosure. Tumor cell strains: human colon cancer COLO205 cells and human breast cancer MCF-7 cells.
(§2) The growth inhibitory effects on human tumor cells COLO205 and MCF-7 cultured in vitro were observed by using a CellTiter-Glo Luminescent Cell Viability Assay Kit (Promega, Cat. No. G7572). Human tumor cells COLO205 and MCF-7 were both purchased from the American Type Culture Collection.
(§3) CellTiter-Glo Luminescent Cell Viability Assay: The previous cell culture medium was discarded, and the tumor cells were rinsed twice with PBS. An appropriate amount of trypsin (VWR, Cat. No. 0458-25G) was added to digest the tumor cells until most of the cells turned round and were detached from the wall. The trypsin digestion was terminated by adding an RPMI-1640 medium (COLO205; Gibco, Cat. No. A10491-01) containing 10% fetal bovine serum (Hyclone, Cat. No. SV30160.03) and MEM medium (MCF-7; Gibco, Cat. No. 10370-021) containing 10% fetal bovine serum and 0.01 mg/mL insulin, and the cells were gently pipetted with a pipette to completely suspend the tumor cells. After cell counting, a tumor cell suspension was prepared using a complete culture medium and the final concentration was 6.7×10^4 cells/mL. 90 μL of the tumor cell suspension was seeded in each well of a 96-well culture plate (6000 cells/well). The plate was then placed in an incubator with 5% CO2 at 37° C. and incubated for 24 h. A test drug was added by using an Agilent Bravo Automated Liquid Handling Platform, and 10 μL of the sample was added in each well. The assay was conducted in triplicate for each group. A compound of the present disclosure was dissolved in DMSO (BioRoYee, Cat. No. AF0231), and then the resulting solution was diluted to 10 μM/L, 3.33 μM/L, 1.11 μM/L, 0.37 μM/L, 0.123 μM/L, 0.041 μM/L, 0.0137 μM/L, 0.0046 μM/L, and 0.0015 μM/L with the culture medium. The concentration of DMSO was lower than 0.1%, and a culture medium containing 0.1% DMSO was added to the well which was set as a vehicle control group. The 96-well plate was placed in an incubator with 5% CO2 at 37° C. and incubated for 72 h. The 96-well plate to be tested was equilibrated at room temperature for 30 min, and 100 μL of Cell Titer-Glo reagent was added to each well. The contents of each well were mixed in an orbital shaker for 2 min to induce cell lysis, and the plate was incubated at room temperature for 10 min to achieve a constant value of fluorescent intensity. Finally, the chemiluminescence intensity was detected by TECAN M1000. Data were processed with Graphpad Prism 6.0 software. The growth curve of the cells was plotted. The cell growth inhibition rate of a drug was calculated, and the half maximal inhibitory concentration (IC50) of the drug was determined.

In another test the target is CDK9 (Homo sapiens, UniProt P50750). The test can be described thus: In-vitro kinase inhibitory activity, CDK9 (selectivity). Format: biochemical. As to conditions: read-out: IC50 (half maximal inhibitory concentration, nM) CDK9.
The next test addresses T1, CDK6/CyclinD3 (Homo sapiens, UniProt Q00534).
T1 construct: purchased Wuxi Biortus Biosciences Co. Ltd
The experiment in a line: In-vitro kinase inhibitory activity, CDK6/CyclinD3 (Caliper EZ Reader II mobility shift). Format: biochemical. To be noted: CDK6/CyclinD3 20 nM, ATP 2 mM, Peptide 1 μM, 27° C., 120 min; read-out: IC50 (half maximal inhibitory concentration, nM) CDK6. Here is the method:
The final volume for assay was 16 μL, and the reaction temperature was 27° C. […] The compound was dissolved in dimethyl sulfoxide (DMSO) to reach a concentration of 10 mM. […] 2 μL of the test compound solution was mixed with 5 μL of the kinase solution, and the mixture was incubated for 10 min. 5 μL of the mixed solution of the polypeptide substrate and ATP was then added. The mixture was incubated at 27° C. for 120 min, and then the reaction was terminated by adding 4 μL of EDTA with a concentration of 120 mM to each sample. […] Each assay was conducted in at least two replicates.
(§4) The final concentrations of the reagents in the assay were as follows. […] The reaction mixture was analyzed on a Caliper EZ Reader II by electrophoretic separation of the fluorescent substrate and the phosphorylated product. Data were calculated by using GraphPad Prism version 6.0 and IC50 values were obtained by adjusting the non-linear regression models of the dose response curves.

Another test deals with T2, CDK4/CyclinD3 (Homo sapiens, UniProt P11802).
T2 construct: purchased Wuxi Biortus Biosciences Co. Ltd
The test can be described thus: In-vitro kinase inhibitory activity, CDK4/CyclinD3 (Caliper EZ Reader II mobility shift). Format: biochemical. As to conditions: CDK4/CyclinD3 20 nM, ATP 2 mM, Peptide 1 μM, 27° C., 180 min; read-out: IC50 (half maximal inhibitory concentration, nM) CDK4. Here is the method:
The final volume for assay was 16 μL, and the reaction temperature was 27° C. CDK4/CyclinD3 was produced by Wuxi Biortus Biosciences Co. Ltd. The concentration of the kinase was determined by the results of the optimization experiment. The kinase was diluted with an assay buffer (50 mM Tris HCl pH 8.0, 0.01% Tween 20, 50 μg/mL BSA, and 5 mM MgCl2) to obtain a corresponding kinase solution (2.4× concentration). The compound was dissolved in dimethyl sulfoxide (DMSO) to reach a concentration of 10 mM. […] 2 μL of the test compound solution was mixed with 5 μL of the kinase solution, and the mixture was incubated for 10 min. 5 μL of the mixed solution of the polypeptide substrate and ATP was then added. The mixture was incubated at 27° C. for 180 min, and then the reaction was terminated by adding 4 μL of EDTA with a concentration of 120 mM to each sample. […] Each assay was conducted in at least two replicates.
as §4

Test [2] has as its system human colon cancer COLO205 cells. The test can be described thus: Growth inhibition of tumor cells cultured in vitro, CellTiter-Glo, COLO205. Format: cell-based. To be noted: COLO205, 72 h, CellTiter-Glo.
Source text: as §1, §2, §3

Chain of CDK9 (P50750 whole entry, species assumed): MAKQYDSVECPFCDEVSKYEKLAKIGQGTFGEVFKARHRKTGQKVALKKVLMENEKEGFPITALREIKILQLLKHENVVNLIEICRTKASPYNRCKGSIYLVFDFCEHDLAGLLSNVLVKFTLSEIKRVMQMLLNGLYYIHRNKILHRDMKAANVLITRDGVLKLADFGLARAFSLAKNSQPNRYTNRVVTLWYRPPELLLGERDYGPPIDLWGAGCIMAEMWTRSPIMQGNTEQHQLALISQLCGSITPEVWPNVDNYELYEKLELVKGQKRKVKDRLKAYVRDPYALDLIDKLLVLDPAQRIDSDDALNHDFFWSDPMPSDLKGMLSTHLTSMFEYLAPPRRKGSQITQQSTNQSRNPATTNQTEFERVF
Chain of CDK9 (O60563 whole entry partner, species assumed): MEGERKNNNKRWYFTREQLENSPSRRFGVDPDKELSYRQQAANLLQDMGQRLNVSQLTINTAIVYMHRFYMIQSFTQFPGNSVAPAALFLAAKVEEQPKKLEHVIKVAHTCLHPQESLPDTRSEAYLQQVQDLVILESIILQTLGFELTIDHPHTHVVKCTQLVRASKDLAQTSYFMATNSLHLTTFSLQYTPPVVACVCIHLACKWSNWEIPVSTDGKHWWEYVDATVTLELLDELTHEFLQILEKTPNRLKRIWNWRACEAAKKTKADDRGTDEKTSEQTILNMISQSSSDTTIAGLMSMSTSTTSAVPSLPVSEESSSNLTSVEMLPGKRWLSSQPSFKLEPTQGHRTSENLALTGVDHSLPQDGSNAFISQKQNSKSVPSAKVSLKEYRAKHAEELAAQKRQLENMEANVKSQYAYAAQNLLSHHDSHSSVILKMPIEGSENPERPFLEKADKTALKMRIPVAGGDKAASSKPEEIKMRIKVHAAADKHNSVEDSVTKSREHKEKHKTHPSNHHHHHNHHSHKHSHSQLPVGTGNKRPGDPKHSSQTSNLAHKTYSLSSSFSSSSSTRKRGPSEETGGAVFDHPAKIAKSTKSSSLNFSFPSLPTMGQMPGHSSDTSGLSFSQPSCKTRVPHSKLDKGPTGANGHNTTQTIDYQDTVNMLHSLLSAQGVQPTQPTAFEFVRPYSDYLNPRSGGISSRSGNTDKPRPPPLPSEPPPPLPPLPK
T1 sequence (Q00534 whole entry, species assumed): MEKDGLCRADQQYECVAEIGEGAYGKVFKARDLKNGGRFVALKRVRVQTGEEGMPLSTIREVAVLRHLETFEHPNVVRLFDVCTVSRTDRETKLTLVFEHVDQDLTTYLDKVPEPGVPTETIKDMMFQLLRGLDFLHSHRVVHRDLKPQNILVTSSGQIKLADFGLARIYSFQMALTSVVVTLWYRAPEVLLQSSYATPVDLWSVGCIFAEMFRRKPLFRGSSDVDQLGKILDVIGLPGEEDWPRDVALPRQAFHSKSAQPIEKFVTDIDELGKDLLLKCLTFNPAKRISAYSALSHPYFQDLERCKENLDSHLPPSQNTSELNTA
T1 sequence (P30281 whole entry partner, species assumed): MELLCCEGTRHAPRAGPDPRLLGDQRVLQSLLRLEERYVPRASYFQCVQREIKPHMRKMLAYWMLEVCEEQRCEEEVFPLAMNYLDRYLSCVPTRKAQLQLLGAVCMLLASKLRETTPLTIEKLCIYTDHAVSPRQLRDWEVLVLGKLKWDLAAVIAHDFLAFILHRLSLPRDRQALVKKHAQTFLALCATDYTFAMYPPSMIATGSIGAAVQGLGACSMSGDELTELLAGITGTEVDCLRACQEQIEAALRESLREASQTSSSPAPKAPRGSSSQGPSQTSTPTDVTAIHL
T2 sequence (P11802 whole entry, species assumed): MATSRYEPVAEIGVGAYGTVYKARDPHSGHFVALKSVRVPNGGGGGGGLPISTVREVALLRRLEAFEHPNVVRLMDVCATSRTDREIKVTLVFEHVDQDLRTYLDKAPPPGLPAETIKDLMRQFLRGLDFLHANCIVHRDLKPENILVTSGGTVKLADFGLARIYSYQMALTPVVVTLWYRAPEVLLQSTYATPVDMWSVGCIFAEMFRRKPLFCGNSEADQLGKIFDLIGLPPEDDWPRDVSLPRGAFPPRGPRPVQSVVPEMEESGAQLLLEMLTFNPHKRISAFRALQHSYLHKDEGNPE
T2 sequence (P30281 whole entry partner, species assumed): as the sequence (P30281 whole entry partner, species assumed) above

Take `CC(=O)c1c(C)c2cnc(Nc3ccc(N4CCN(CCN5CCN(c6cc7c(cc6F)C(=O)N(C6CCC(=O)NC6=O)C7)CC5)CC4)cn3)nc2n(C2CCCC2)c1=O.Cl.Cl` (stereo not drawn) [Compound 27, 3-(5-(4-(2-(4-(6-((6-acetyl-8-cyclopentyl-5-methyl-7-oxo-7,8-dihydropyrido[2,3-d]pyrimidin-2-yl)amino)pyridin-3-yl)piperazin-1-yl)ethyl)piperazin-1-yl)-6-fluoro-1-oxoisoindolin-2-yl)piperidine-2,6-dione dihydrochloride]: the IC50 in test [1] (Homo sapiens, MCF7, 72 h) is 71.6 nM; on CDK9, over 10000 nM; on CDK6/CyclinD3, 29.6 nM; at CDK4/CyclinD3 it was 45.4 nM. In test [1], the “inhibitory effect on human breast cancer MCF-7 cells (in words)” value is “relatively good inhibitory effects”.
As to `COc1c(N2CCN(CCN3CCN(c4ccc(Nc5ncc6c(C)c(C(C)=O)c(=O)n(C7CCCC7)c6n5)nc4)CC3)CC2)ccc2c1CN(C1CCC(=O)NC1=O)C2=O` (stereo not drawn) [Compound 19, 3-(5-(4-(2-(4-(6-((6-acetyl-8-cyclopentyl-5-methyl-7-oxo-7,8-dihydropyrido[2,3-d]pyrimidin-2-yl)amino)pyridin-3-yl)piperazin-1-yl)ethyl)piperazin-1-yl)-4-methoxy-1-oxoisoindolin-2-yl)piperidine-2,6-dione dihydrochloride], the IC50 in test [2] (dihydrochloride) is 43.2 nM; in test [1], over 10000 nM; on CDK9, 5610 nM; at CDK6/CyclinD3, 20.5 nM; at CDK4/CyclinD3, 54.8 nM.
Regarding `COc1cc(N2CCN(CCN3CCN(c4ccc(Nc5ncc6c(C)c(C(C)=O)c(=O)n(C7CCCC7)c6n5)nc4)CC3)CC2)cc2c1C(=O)N(C1CCC(=O)NC1=O)C2` (stereo not drawn) [Compound 16, 3-(5-(4-(2-(4-(6-((6-acetyl-8-cyclopentyl-5-methyl-7-oxo-7,8-dihydropyrido[2,3-d]pyrimidin-2-yl)amino)pyridin-3-yl)piperazin-1-yl)ethyl)piperazin-1-yl)-7-methoxy-1-oxoisoindolin-2-yl)piperidine-2,6-dione], the IC50 is 66.9 nM in test [2] (Homo sapiens, COLO 205, 72 h); over 10000 nM in test [1] (Homo sapiens, MCF7, 72 h); over 10000 nM at CDK9; 26.4 nM at CDK6/CyclinD3; 60.1 nM at CDK4/CyclinD3.
With `CC(=O)c1c(C)c2cnc(Nc3ccc(N4CCN(CCN5CCN(c6c(F)cc7c(c6F)CN(C6CCC(=O)NC6=O)C7=O)CC5)CC4)cn3)nc2n(C2CCCC2)c1=O.Cl.Cl` (stereo not drawn) [Compound 23, 3-(5-(4-(2-(4-(6-((6-acetyl-8-cyclopentyl-5-methyl-7-oxo-7,8-dihydropyrido[2,3-d]pyrimidin-2-yl)amino)pyridin-3-yl)piperazin-1-yl)ethyl)piperazin-1-yl)-4,6-difluoro-1-oxoisoindolin-2-yl) piperidine-2,6-dione dihydrochloride], the IC50 in test [1] (dihydrochloride) was determined as 13.5 nM; on CDK9, 4580 nM; at CDK6/CyclinD3 it was 22.1 nM; on CDK4/CyclinD3 it was 48.8 nM. In addition, the “inhibitory effect on human breast cancer MCF-7 cells (in words)” value in test [1] is “relatively good inhibitory effects”.
On to `CN(C)C(=O)c1cc2cnc(Nc3ccc(N4CCN(CCN5CCC(CN6CCN(c7ccc8c(c7)CN([C@H]7CCC(=O)NC7=O)C8=O)CC6)CC5)CC4)cn3)nc2n1C1CCCC1` [Compound 29, (S)-7-cyclopentyl-2-((5-(4-(2-(4-((4-(2-(2,6-dioxopiperidin-3-yl)-1-oxoisoindolin-5-yl)piperazin-1-yl)methyl)piperidin-1-yl)ethyl)piperazin-1-yl)pyridin-2-yl)amino)-N,N-dimethyl-7H-pyrrolo[2,3-d]pyrimidin-6-amide trihydrochloride], for which the IC50 in test [1] (Homo sapiens, MCF7, 72 h) came to 106 nM; at CDK9, 3650 nM; at CDK6/CyclinD3 it was 42.1 nM; at CDK4/CyclinD3, 37.8 nM.

The values are drawn from US11485735B2, “Selective CDK4/6 inhibitor and preparation thereof” (Wuxi Shuangliang Biotechnology Co., Ltd., priority 2019, dated 2022).
